Measurements published in patent US7973055B2, “Crystalline forms of a biphenyl compound” (Theravance, Inc., priority 2006, dated 2011).
Structures can show the parent of a compound that is named as a salt.

Experiments:
[1] = Dynamic moisture sorption (DMS) assessment; type: physicochemical; details: for weight gain when exposed to up to 90% relative humidity / level of hygroscopicity: DMS; for weight gain when exposed to up to 90% relative humidity: up to 90% RH; for deliquescence: exposed to up to 90% relative humidity
Description: A dynamic moisture sorption (DMS) assessment (also known as a moisture sorption-desorption profile) was performed for samples of a crystalline hemiedisylate (prepared as described in Example 2) and a heminapadisylate (prepared as described in Example 5) salt using a VTI atmospheric microbalance, SGA-100 system (VTI Corp., Hialeah, Fla. 33016). A sample size of approximately 10 mg was used and the humidity was set at the ambient value at the start of the analysis. A typical DMS analysis consisted of three scans: ambient to 2% relative humidity (RH), 2% RH to 90% RH, 90% RH to 5% RH at a scan rate of 5% RH/step. The mass was measured every two minutes and the RH was changed stepwise to the next value (+/−5% RH) when the mass of the sample was stable to within 0.02% for 5 consecutive points.

[2] = 5° C./min
Description: Differential scanning calorimetry (DSC) was performed using a TA Instruments Model Q-10 module with a Thermal Analyst controller. Data were collected and analyzed using TA Instruments Thermal Solutions software. A sample of about 1 mg was accurately weighed into an aluminum pan with lid. The sample was evaluated using a linear heating ramp of 5° C./min from ambient temperature to approximately 300° C. The DSC cell was purged with dry nitrogen during use.

[3] = 0.2 mg/mL freebase equivalents in 10 mM citrate buffered normal saline, pH 4.5; one month at 40° C./75% RH
Description: A solution was prepared with 0.2 mg/mL freebase equivalents (using a crystalline heminapadisylate salt prepared as described in Example 5) in 10 mM citrate buffered normal saline, pH 4.5. Less than 0.5% degradation was observed after storage for one month at 40° C./75% RH.

[4] = Solid state stability assessment (HPLC); details: about 1 month at 40° C. and 75% RH
Description: These stock solutions were diluted to 1 mg/mL in 10% ACN for injection onto the HPLC.

| Compound | weight gain when exposed to up to 90% relative humidity [1] | no thermal decomposition below (DSC trace) [2] [°C] | other results |
| --- | --- | --- | --- |
| CN(CCN1CCC(OC(=O)Nc2ccccc2-c2ccccc2)CC1)C(=O)c1cccc(C(=O)NCCNCc2ccc(O)cc2)c1 [crystalline diacetate salt] | less than 18% |  |  |
| CN(CCN1CCC(OC(=O)Nc2ccccc2-c2ccccc2)CC1)C(=O)c1cccc(C(=O)NCCNCc2ccc(O)cc2)c1 [crystalline dipropionate salt] | less than 11% |  |  |
| CN(CCN1CCC(OC(=O)Nc2ccccc2-c2ccccc2)CC1)C(=O)c1cccc(C(=O)NCCNCc2ccc(O)cc2)c1 [crystalline freebase (Form I), Crystalline Freebase Biphenyl-2-ylcarbamic Acid 1-[2-({3-[2-(4-Hydroxybenzylamino)ethylcarbamoyl]benzoyl}methylamino)ethyl]piperidin-4-yl Ester (Form I)] |  | ≥ 95 |  |
| CN(CCN1CCC(OC(=O)Nc2ccccc2-c2ccccc2)CC1)C(=O)c1cccc(C(=O)NCCNCc2ccc(O)cc2)c1 [crystalline freebase (Form II), Crystalline Freebase Biphenyl-2-ylcarbamic Acid 1-[2-({3-[2-(4-Hydroxybenzylamino)ethylcarbamoyl]benzoyl}methylamino)ethyl]piperidin-4-yl Ester (Form II)] |  | ≥ 110 |  |
| CN(CCN1CCC(OC(=O)Nc2ccccc2-c2ccccc2)CC1)C(=O)c1cccc(C(=O)NCCNCc2ccc(O)cc2)c1.CN(CCN1CCC(OC(=O)Nc2ccccc2-c2ccccc2)CC1)C(=O)c1cccc(C(=O)NCCNCc2ccc(O)cc2)c1.O=S(=O)(O)CCS(=O)(=O)O [crystalline hemiedisylate salt, Crystalline Hemiedisylate Salt of Biphenyl-2-ylcarbamic Acid 1-[2-({3-[2-(4-Hydroxybenzylamino)ethylcarbamoyl]benzoyl}methylamino)ethyl]piperidin-4-yl Ester] | less than 4% | ≥ 190 | level of hygroscopicity [1]: moderate and low; deliquescence [1]: not deliquescent |
| CN(CCN1CCC(OC(=O)Nc2ccccc2-c2ccccc2)CC1)C(=O)c1cccc(C(=O)NCCNCc2ccc(O)cc2)c1.CN(CCN1CCC(OC(=O)Nc2ccccc2-c2ccccc2)CC1)C(=O)c1cccc(C(=O)NCCNCc2ccc(O)cc2)c1.O=S(=O)(O)c1cccc2c(S(=O)(=O)O)cccc12 [crystalline heminapadisylate salt, Crystalline Heminapadisylate Salt of Biphenyl-2-ylcarbamic Acid 1-[2-({3-[2-(4-Hydroxybenzylamino)ethylcarbamoyl]benzoyl}methylamino)ethyl]piperidin-4-yl Ester] | less than 2% | ≥ 220 | weight gain in the humidity range of 40-75% RH ([1]; 40-75% RH): 0.46%; level of hygroscopicity [1]: low; deliquescence [1]: not deliquescent; degradation of inhalation solution after storage [3]: Less than 0.5%; chemical degradation by HPLC after storage [4]: less than 0.5% |
| CN(CCN1CCC(OC(=O)Nc2ccccc2-c2ccccc2)CC1)C(=O)c1cccc(C(=O)NCCNCc2ccc(O)cc2)c1 [crystalline monooxalate salt] | less than 14% |  |  |
